# Reference: patent publication US7635691B2, “Use of CDP-choline for the prophylactic treatment of cerebral ischemia” (Ferrer Internacional, S.A., priority 2000, dated 2009)
# Test system: caspases 1, 2, 3, 6 and 8
# Assay: Caspase expression (apoptosis markers) after permanent middle cerebral artery occlusion, model of cortical cerebral ischemia in the rat
# Type: in vivo
# Description: The effect of CDP-Choline on deferred nerve cell death (apoptosis) has been assessed in a model of cortical cerebral ischemia in the rat in accordance with the following experimental protocol:
# All cerebral infarction tests were performed in male Sprague-Dawley rats weighing 220-270 g. Animals were housed, with free access to food and water, in temperature- and humidity-controlled rooms with a 12/12 h light-dark cycle.
# Cerebral ischemia was induced by a permanent proximal occlusion of the middle cerebral artery using electrocoagulation. Under deep anesthesia, the rat head was clipped and an incision was made between the left ear and the left eye. Then, the cranium was exposed by sectioning the temporal muscle. Craniotomy was performed using a 1-2 mm drill behind the scaly fissure. The dura mater was drilled in order to expose the middle cerebral artery arm which was permanently coagulated.
# Rats were randomly divided into three groups:
# (a) After 30 minutes of ischemia, the animals in this group were treated with CDP-Choline (500 mg/kg) in 0.9% sterile physiologic saline (0.1 ml) administered intraperitoneally. This group is depicted in FIGS. 1 through 5 as “After.”
# (b) Since 24 hours before ischemia and after 30 minutes of ischemia, the animals in this group received the same treatment as in group (a). This group is depicted in FIGS. 1 through 5 as “Before.”
# (c) The animals in this group were used as control. After ischemia, they were treated with 0.9% physiologic saline vehicle (0.1 ml) administered intraperitoneally. This group is depicted in FIGS. 1 through 5 as “Control.”
# The animals were allowed to recover at different times (30 min and 1, 4, 8, 12, 24 and 48 hours) before terminal anesthesia with ethyl ether. […]
# For assessment of the effect of treatment, the expression of caspases 1, 2, 3, 6 and 8, as markers of apoptosis process, was measured 12 hours after infarction induction, whose results are shown in FIGS. 1, 2, 3, 4, and 5, respectively. […]
smiles,measurement,setting,value
"C[N+](C)(C)CCOP(=O)(O)OP(=O)([O-])OC[C@H]1O[C@@H](n2ccc(N)nc2=O)[C@H](O)[C@@H]1O [CDP-Choline, cytidine-diphosphate-choline]","caspase level, treatment before and after ischemia compared with treatment only after ischemia","500 mg/kg intraperitoneally from 24 hours before ischemia and 30 minutes after ischemia ('Before') vs only 30 minutes after ischemia ('After'), 12 hours after infarction induction",decreases caspase level more significantly than when administered only after infarction induction
same,"expression of caspases 1, 2, 3, 6 and 8 as markers of apoptosis process, treated vs control","male Sprague-Dawley rats, CDP-Choline 500 mg/kg intraperitoneally, groups 'After' and 'Before' vs saline control, measured 12 hours after infarction induction, figures in immunofluorescence units",significant differences between treated and control animals
same,nerve cell apoptosis in the penumbra area,"summary statement in the description, rat focal ischemia model",reduces nerve cell apoptosis in the penumbra area
